A short description of data set [1]: 48 hours cytotoxicity assay (CellTiter-Glo), liver toxicity. Type of data set: cell-based, human. The method, boiled down:
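HepG2 cells in EMEM with 10% FBS, allowed to attach 4 h, then exposed to serially diluted StAMPs or vehicle for 48 h at 37 °C. Viability read by CellTiter-Glo luminescence.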
(In general: In ATP-based viability assays light output follows the ATP content of the culture.)

The nature of data set [2]: 90 minute cytotoxicity assay (LDH release), renal toxicity. Type of data set: cell-based. The source says:
In some embodiments, a peptide provided herein has renal toxicity that is at least 10% (e.g., at least 15%, at least 20%, at least 25%, at least 30%, at least 35%, at least 40%, at least 45%, at least 50%, at least 55%, at least 60%, at least 65%, at least 65%, at least 70%, at least 75%, at least 80%, at least 85%, at least 90%, at least 95%, at least 99%) lower than the renal toxicity of the reference. The renal toxicity of a peptide can be measured in vitro using a renal proximal tubule epithelial cell (RPTEC) renal toxicity assay.
Cell culture: RPTEC were maintained in MEM media supplemented with growth factors. HEPG2 cell line was maintained in Eagle's Minimum Essential Medium (EMEM) supplemented with fetal bovine serum to a final concentration of 10%.
90 minute cytotoxicity assay: Cells were plated in a 96-well format, and after overnight incubation, media was replaced with fresh media. Serial dilutions of StAMPs from a 5 mg/mL water stock, or vehicle, were added to the cells in a final volume of 100 μl. After incubating at 37° C. for 90 min, 50 μl of cell culture media was transferred to a clear 96-well plate, incubated with 50 μl of lactate dehydrogenase (LDH) assay reagent for 10 min, and absorbance measured at 490 nm on a microplate reader.
Renal toxicity was measured after 90 minutes of incubation, while liver toxicity was measured after 48 hours of incubation with StAMPs. N/A=not tested.
For orientation: Release of lactate dehydrogenase indicates damage to the cell membrane.

Structures are written as SMILES. In brackets after ≈: the same amount, converted by molar mass. Starred links: 1 amine or outer side, 2 acyl side, 3 side chain; linkers in the order of their positions; H or OH if unused. Positions of bridges follow the written chain, without caps; N, C: chain ends. Residues, ends and D or L forms follow the SMILES beside them. Biphenyl(4,4'-CH2)2 = c1cc(-c2ccc(C[*:2])cc2)ccc1C[*:1]; mXylylene = c1cc(C[*:1])cc(C[*:2])c1; pXylylene = c1cc(C[*:2])ccc1C[*:1]; X1 = C(=CC[*:2])C[*:1]

Broadly, the IC50 is the midpoint of a concentration-inhibition curve. Higher therefore signals weaker potency in that assay. As to `CC[C@H](C)[C@H](NC(=O)CN)C(=O)N[C@@H](Cc1ccccc1)C(=O)N[C@@H](CO)C(=O)N[C@@H](CCCCN)C(=O)N[C@@H](CC(C)C)C(=O)N[C@@H](C)C(=O)NCC(=O)N[C@@H](CCCCN)C(=O)N[C@@H](CCCCN)C(=O)N[C@H](C(=O)N[C@@H](CCCCN)C(=O)N[C@@H](CC(N)=O)C(=O)N[C@H]1CSCc2cccc(c2)CSC[C@@H](C(=O)N[C@@H](CC(C)C)C(=O)N[C@@H](CCCCN)C(=O)NCC(N)=O)NC(=O)[C@H](CO)NC(=O)[C@H]([C@@H](C)CC)NC(=O)[C@H](CC(C)C)NC1=O)[C@@H](C)CC` [compound 26] (H-GIFSKLAGKKIKNCLISCLKG-NH2; linker 14-18 via mXylylene; N-terminus assumed), the IC50 was 44 µg/mL (≈ 18.9 µM) in data set [1] and 64 µg/mL (≈ 27.6 µM) in data set [2].

As to `CC[C@H](C)[C@H](NC(=O)CN)C(=O)N[C@@H](Cc1ccccc1)C(=O)N[C@@H](CO)C(=O)N[C@@H](CCCCN)C(=O)N[C@@H](CC(C)C)C(=O)N[C@H]1CSCc2cccc(c2)CSC[C@@H](C(=O)N[C@@H](CCCCN)C(=O)N[C@@H](CC(N)=O)C(=O)N[C@@H](CC(C)C)C(=O)N[C@@H](CC(C)C)C(=O)N[C@H](C(=O)N[C@@H](CO)C(=O)N[C@@H](C)C(=O)N[C@@H](CC(C)C)C(=O)N[C@@H](CCCCN)C(=O)NCC(=O)O)[C@@H](C)CC)NC(=O)[C@H](CCCCN)NC(=O)[C@H](CCCCN)NC(=O)[C@H](C)NC1=O` [compound 99] (H-GIFSKLCAKKCKNLLISALKG-OH; linker 7-11 via mXylylene; N-terminus assumed), the values for the IC50 in data set [1] and in data set [2] were 59 µg/mL (≈ 25.2 µM) and 45 µg/mL (≈ 19.2 µM), respectively.

With `CC[C@H](C)[C@H](NC(=O)CN)C(=O)N[C@@H](Cc1ccccc1)C(=O)N[C@@H](CO)C(=O)N[C@@H](CCCCN)C(=O)N[C@@H](CC(C)C)C(=O)N[C@@H](C)C(=O)NCC(=O)N[C@@H](CCCCN)C(=O)N[C@@H](CCCCN)C(=O)N[C@H](C(=O)N[C@@H](CCCCN)C(=O)N[C@@H](CC(N)=O)C(=O)N[C@H]1CSCc2ccc(cc2)CSC[C@@H](C(=O)N[C@@H](CC(C)C)C(=O)N[C@@H](CCCCN)C(=O)NCC(N)=O)NC(=O)[C@H](CO)NC(=O)[C@H]([C@@H](C)CC)NC(=O)[C@H](CC(C)C)NC1=O)[C@@H](C)CC` [compound 27] (H-GIFSKLAGKKIKNCLISCLKG-NH2; linker 14-18 via pXylylene; N-terminus assumed), the IC50 in data set [1] and in data set [2] was more than 200 µg/mL in each case.

Consider `CC[C@H](C)[C@H](NC(=O)CN)C(=O)N[C@@H](Cc1ccccc1)C(=O)N[C@@H](CO)C(=O)N[C@@H](CCCCN)C(=O)N[C@@H](CC(C)C)C(=O)N[C@@H](C)C(=O)NCC(=O)N[C@H]1CSCc2cccc(c2)CSC[C@@H](C(=O)N[C@@H](CC(C)C)C(=O)N[C@@H](CC(C)C)C(=O)N[C@H](C(=O)N[C@@H](CO)C(=O)NCC(=O)N[C@@H](CC(C)C)C(=O)N[C@@H](CCCCN)C(=O)NCC(N)=O)[C@@H](C)CC)NC(=O)[C@H](CCCCN)NC(=O)[C@H]([C@@H](C)CC)NC(=O)[C@H](CCCCN)NC1=O` [compound 42] (H-GIFSKLAGCKIKCLLISGLKG-NH2; linker 9-13 via mXylylene; N-terminus assumed), for which the 50% inhibitory concentration (IC50) in data set [1] and in data set [2] was more than 200 µg/mL in each case.

Take `CC[C@H](C)[C@H](NC(=O)CN)C(=O)N[C@@H](Cc1ccccc1)C(=O)N[C@@H](CO)C(=O)N[C@@H](CCCCN)C(=O)N[C@@H](CC(C)C)C(=O)N[C@H]1CSCc2cccc(c2)CSC[C@@H](C(=O)N[C@@H](CCCCN)C(=O)N[C@@H](CC(N)=O)C(=O)N[C@@H](CC(C)C)C(=O)N[C@@H](CC(C)C)C(=O)N[C@H](C(=O)N[C@@H](CO)C(=O)N[C@@H](C)C(=O)N[C@@H](CC(C)C)C(=O)N[C@@H](CCCCN)C(=O)NCC(=O)O)[C@@H](C)CC)NC(=O)[C@H](CCCCN)NC(=O)[C@H](CCCCN)NC(=O)CNC1=O` [compound 98] (H-GIFSKLCGKKCKNLLISALKG-OH; linker 7-11 via mXylylene; N-terminus assumed): the results for the half-inhibitory concentration (IC50) in data set [1] and in data set [2] were 50 µg/mL (≈ 21.5 µM) and 28 µg/mL (≈ 12 µM), respectively.

For the compound `CC[C@H](C)[C@H](NC(=O)[C@H](CC(C)C)NC(=O)[C@H](CC(C)C)NC(=O)[C@H](CC(N)=O)NC(=O)[C@H](CCCCN)NC(=O)[C@@H](NC(=O)[C@H](CCCCN)NC(=O)[C@@H]1CSCc2ccc(cc2)-c2ccc(cc2)CSC[C@H](NC(=O)CN)C(=O)N[C@@H](Cc2ccccc2)C(=O)N[C@@H](CO)C(=O)N[C@@H](CCCCN)C(=O)N[C@@H](CC(C)C)C(=O)N[C@@H](C)C(=O)NCC(=O)N1)[C@@H](C)CC)C(=O)N[C@@H](CO)C(=O)NCC(=O)N[C@@H](CC(C)C)C(=O)N[C@@H](CCCCN)C(=O)NCC(N)=O` [compound 53] (H-GCFSKLAGCKIKNLLISGLKG-NH2; linker 2-9 via Biphenyl(4,4'-CH2)2; N-terminus assumed), the half-maximal inhibitory concentration (IC50) amounted to 78 µg/mL (≈ 33.5 µM) in data set [1] and 40 µg/mL (≈ 17.2 µM) in data set [2].

`CC[C@H](C)[C@H](NC(=O)CN)C(=O)N[C@@H](Cc1ccccc1)C(=O)N[C@@H](CO)C(=O)N[C@@H](CCCCN)C(=O)N[C@@H](CC(C)C)C(=O)N[C@H]1CSCc2cccc(c2)CSC[C@@H](C(=O)N[C@@H](CCCCN)C(=O)N[C@@H](CC(N)=O)C(=O)N[C@@H](CC(C)C)C(=O)N[C@@H](CC(C)C)C(=O)N[C@H](C(=O)N[C@@H](CO)C(=O)NCC(=O)N[C@@H](CC(C)C)C(=O)N[C@@H](CCCCN)C(=O)NCC(=O)NCC(=O)NCC(=O)N[C@@H](CCCCN)C(=O)O)[C@@H](C)CC)NC(=O)[C@H](CCCCN)NC(=O)[C@H](CCCCN)NC(=O)CNC1=O` [compound 94] (H-GIFSKLCGKKCKNLLISGLKGGGK-OH; linker 7-11 via mXylylene; N-terminus assumed): the IC50 in data set [1] is more than 200 µg/mL; in data set [2], 168 µg/mL (≈ 65.8 µM).

`CC[C@H](C)[C@H](NC(=O)CN)C(=O)N[C@@H](Cc1ccccc1)C(=O)N[C@@H](CO)C(=O)N[C@@H](CCCCN)C(=O)N[C@H]1CSCc2ccc(cc2)-c2ccc(cc2)CSC[C@@H](C(=O)N[C@@H](CC(C)C)C(=O)N[C@@H](CC(C)C)C(=O)N[C@H](C(=O)N[C@@H](CO)C(=O)NCC(=O)N[C@@H](CC(C)C)C(=O)N[C@@H](CCCCN)C(=O)NCC(N)=O)[C@@H](C)CC)NC(=O)[C@H](CCCCN)NC(=O)[C@H]([C@@H](C)CC)NC(=O)[C@H](CCCCN)NC(=O)[C@H](CCCCN)NC(=O)CNC(=O)[C@H](C)NC1=O` [compound 65] (H-GIFSKCAGKKIKCLLISGLKG-NH2; linker 6-13 via Biphenyl(4,4'-CH2)2; N-terminus assumed): the IC50 was 13 µg/mL (≈ 5.55 µM) in data set [1] and 15 µg/mL (≈ 6.4 µM) in data set [2].

Consider `CC[C@H](C)[C@H](NC(=O)CN)C(=O)N[C@@H](Cc1ccccc1)C(=O)N[C@@H](CO)C(=O)N[C@@H](CCCCN)C(=O)N[C@@H](CC(C)C)C(=O)N[C@@H](C)C(=O)NCC(=O)N[C@@H](CCCCN)C(=O)N[C@@H](CCCCN)C(=O)N[C@H](C(=O)N[C@@H](CCCCN)C(=O)N[C@@H](CC(N)=O)C(=O)N[C@H]1CSCC=CCSC[C@@H](C(=O)N[C@@H](CC(C)C)C(=O)N[C@@H](CCCCN)C(=O)NCC(N)=O)NC(=O)[C@H](CO)NC(=O)[C@H]([C@@H](C)CC)NC(=O)[C@H](CC(C)C)NC1=O)[C@@H](C)CC` [compound 28] (H-GIFSKLAGKKIKNCLISCLKG-NH2; linker 14-18 via X1; N-terminus assumed), for which the IC50 in data set [1] and in data set [2] was more than 200 µg/mL each time.

For `CC[C@H](C)[C@H](NC(=O)CN)C(=O)N[C@@H](Cc1ccccc1)C(=O)N[C@@H](CO)C(=O)N[C@@H](CCCCN)C(=O)N[C@@H](CC(C)C)C(=O)N[C@H]1CSCc2ccc(cc2)-c2ccc(cc2)CSC[C@@H](C(=O)N[C@@H](CC(C)C)C(=O)N[C@H](C(=O)N[C@@H](CO)C(=O)NCC(=O)N[C@@H](CC(C)C)C(=O)N[C@@H](CCCCN)C(=O)NCC(N)=O)[C@@H](C)CC)NC(=O)[C@H](CC(N)=O)NC(=O)[C@H](CCCCN)NC(=O)[C@H]([C@@H](C)CC)NC(=O)[C@H](CCCCN)NC(=O)[C@H](CCCCN)NC(=O)CNC1=O` [compound 88] (H-GIFSKLCGKKIKNCLISGLKG-NH2; linker 7-14 via Biphenyl(4,4'-CH2)2; N-terminus assumed), the IC50 in data set [1] worked out at 15 µg/mL (≈ 6.29 µM); in data set [2], 13 µg/mL (≈ 5.45 µM).

With `CC[C@H](C)[C@H](NC(=O)CN)C(=O)N[C@@H](Cc1ccccc1)C(=O)N[C@@H](CO)C(=O)N[C@@H](CCCCN)C(=O)N[C@@H](CC(C)C)C(=O)N[C@@H](C)C(=O)NCC(=O)N[C@@H](CCCCN)C(=O)N[C@@H](CCCCN)C(=O)N[C@H](C(=O)N[C@@H](CCCCN)C(=O)N[C@@H](CC(N)=O)C(=O)N[C@@H](CC(C)C)C(=O)N[C@@H](CC(C)C)C(=O)N[C@H]1CSCC=CCSC[C@@H](C(=O)NCC(N)=O)NC(=O)[C@H](CC(C)C)NC(=O)CNC(=O)[C@H](CO)NC1=O)[C@@H](C)CC` [compound 34] (H-GIFSKLAGKKIKNLLCSGLCG-NH2; linker 16-20 via X1; N-terminus assumed), the IC50 in data set [1] is 119 µg/mL (≈ 54 µM); in data set [2], approximately 200 µg/mL (≈ 90.8 µM).

Values taken from patent publication US20240391965A1, “STAPLED ANTIMICROBIAL PEPTIDES (STAMPS) AND USES THEREOF” (Lytica Therapeutics, Inc., priority 2021, published 2024).
